32 molecules from patent US9663513B2, “Pyrimidine PDE10 inhibitors” (Merck Sharp & Dohme Corp., priority 2012, dated 2017) can be followed below.

Each structure is given as a SMILES string.

Sequence of human PDE10A2 (Q9Y233 267-1055): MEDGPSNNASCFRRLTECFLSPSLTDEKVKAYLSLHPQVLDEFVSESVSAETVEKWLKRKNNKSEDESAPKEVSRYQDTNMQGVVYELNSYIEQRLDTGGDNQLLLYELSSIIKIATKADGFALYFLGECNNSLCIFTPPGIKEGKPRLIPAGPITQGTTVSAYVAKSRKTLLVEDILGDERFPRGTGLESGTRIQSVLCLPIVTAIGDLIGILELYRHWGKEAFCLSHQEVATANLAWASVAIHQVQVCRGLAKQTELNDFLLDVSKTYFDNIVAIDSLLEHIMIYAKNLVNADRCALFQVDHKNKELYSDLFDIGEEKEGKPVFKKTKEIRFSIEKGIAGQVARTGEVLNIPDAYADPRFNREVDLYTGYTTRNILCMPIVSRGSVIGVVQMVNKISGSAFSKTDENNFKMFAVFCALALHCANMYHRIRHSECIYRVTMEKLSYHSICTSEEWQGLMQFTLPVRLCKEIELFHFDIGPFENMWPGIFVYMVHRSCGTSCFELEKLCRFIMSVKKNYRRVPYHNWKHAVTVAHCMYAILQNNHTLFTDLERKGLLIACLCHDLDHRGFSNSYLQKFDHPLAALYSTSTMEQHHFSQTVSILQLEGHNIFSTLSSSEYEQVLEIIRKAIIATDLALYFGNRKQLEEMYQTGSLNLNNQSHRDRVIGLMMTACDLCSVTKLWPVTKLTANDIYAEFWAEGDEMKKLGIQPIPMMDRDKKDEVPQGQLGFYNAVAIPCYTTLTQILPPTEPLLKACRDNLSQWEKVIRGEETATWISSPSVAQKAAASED

This assay addresses human PDE10A2 (Homo sapiens (Human), UniProt Q9Y233). As to the kind of experiment: PDE10 fluorescence polarization (IMAP FP) inhibition assay. Format: biochemical. As to conditions: human PDE10A2 from transfected AD293 cells; FAM-labeled cAMP 50 nM; apparent inhibition constant; read-out: PDE10A Ki. The gist of the method: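 Cytoplasmic lysate of AD293 cells transiently expressing human PDE10A2 (enzyme level giving 20% conversion) incubated with 50 nM FAM-cAMP in pH 7.2 Tris/MgCl2 buffer, 30 min at room temperature. IMAP binding solution added, FP read after ≥1 h; 10-point 3-fold compound titrations fitted to a four-parameter equation.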
A general note: Polarisation of emitted light reports the rotation of a fluorescent probe.
As to `COc1ccc([C@H]2C[C@@H]2COc2nc(C)ncc2-c2ccc(-c3nc(CO)no3)cc2)nc1` [Example 95, (5-(4-(4-(((1S,2S)-2-(5-methoxypyridin-2-yl)cyclopropyl)methoxy)-2-methylpyrimidin-5-yl)phenyl)-1,2,4-oxadiazol-3-yl)methanol], the Ki came to 0.93 nM.
Turning to `COc1ccc([C@H]2C[C@@H]2COc2nc(C)ncc2-c2cnc(C(=O)O)cn2)nc1` [Example 96, 5-(4-(((1S,2S)-2-(5-methoxypyridin-2-yl)cyclopropyl)methoxy)-2-methylpyrimidin-5-yl)pyrazine-2-carboxylic acid], the Ki was 1.26 nM.
In the case of `COC(=O)c1cnc(-c2cnc(C)nc2OC[C@H]2C[C@@H]2c2ccc(OC)cn2)cn1` [Example 97, methyl 5-(4-(((1S,2S)-2-(5-methoxypyridin-2-yl)cyclopropyl)methoxy)-2-methylpyrimidin-5-yl)pyrazine-2-carboxylate] it was 9.74 nM; in that of `COc1ccc([C@H]2C[C@@H]2COc2nc(C)ncc2-c2cnc(CO)cn2)nc1` [Example 98, (5-(4-(((1S,2S)-2-(5-methoxypyridin-2-yl)cyclopropyl)methoxy)-2-methylpyrimidin-5-yl)pyrazin-2-yl)methanol], 12 nM.
`COc1ccc([C@H]2C[C@@H]2COc2nc(C)ncc2-c2ccc(C(=O)O)nn2)nc1` [Example 99, 6-(4-(((1S,2S)-2-(5-methoxypyridin-2-yl)cyclopropyl)methoxy)-2-methylpyrimidin-5-yl)pyridazine-3-carboxylic acid]: the Ki is 2.68 nM.
Take `COc1ccc([C@H]2C[C@@H]2COc2nc(C)ncc2-c2ccc(C(C)(C)O)nn2)nc1` [Example 100, 2-(6-(4-(((1S,2S)-2-(5-methoxypyridin-2-yl)cyclopropyl)methoxy)-2-methylpyrimidin-5-yl)pyridazin-3-yl)propan-2-ol]: the Ki was 4.01 nM.
In the case of `COc1ccc([C@H]2C[C@@H]2COc2nc(C)ncc2-c2ccc(CO)nn2)nc1` [Example 101, (6-(4-(((1S,2S)-2-(5-methoxypyridin-2-yl)cyclopropyl)methoxy)-2-methylpyrimidin-5-yl)pyridazin-3-yl)methanol] it was 11.9 nM.
In the case of `COc1ccc([C@H]2C[C@@H]2COc2nc(C)ncc2-c2ccc(C)nn2)nc1` [Example 102, 3-(4-(((1S,2S)-2-(5-methoxypyridin-2-yl)cyclopropyl)methoxy)-2-methylpyrimidin-5-yl)-6-methylpyridazine] it was 10.3 nM.
Regarding `CNC(=O)c1ccc(-c2cnc(C)nc2OC[C@H]2C[C@@H]2c2ccc(OC)cn2)cn1` [Example 103, 5-(4-(((1S,2S)-2-(5-methoxypyridin-2-yl)cyclopropyl)methoxy)-2-methylpyrimidin-5-yl)-N-methylpicolinamide], the Ki stood at 2.35 nM.
The value for `COc1ccc([C@H]2C[C@@H]2COc2nc(C)ncc2-c2ccc(C(=O)NCC(F)(F)F)nc2)nc1` [Example 104, 5-(4-(((1S,2S)-2-(5-methoxypyridin-2-yl)cyclopropyl)methoxy)-2-methylpyrimidin-5-yl)-N-(2,2,2-trifluoroethyl)picolinamide] was 0.67 nM.
In the case of `COc1ccc([C@H]2C[C@@H]2COc2nc(C)ncc2-c2ccc(C(N)=O)nc2)nc1` [Example 105, 5-(4-(((1S,2S)-2-(5-methoxypyridin-2-yl)cyclopropyl)methoxy)-2-methylpyrimidin-5-yl)picolinamide], the Ki was 1.41 nM.
In the case of `COc1ccc([C@H]2C[C@@H]2COc2nc(C)ncc2-c2ccc(C(=O)NCCO)nc2)nc1` [Example 106, N-(2-hydroxyethyl)-5-(4-(((1S,2S)-2-(5-methoxypyridin-2-yl)cyclopropyl)methoxy)-2-methylpyrimidin-5-yl)picolinamide] it was 0.64 nM.
Regarding `COc1ccc([C@H]2C[C@@H]2COc2nc(C)ncc2-c2ccc(C(=O)NCCO)cc2)nc1` [Example 107, N-(2-hydroxyethyl)-4-(4-(((1S,2S)-2-(5-methoxypyridin-2-yl)cyclopropyl)methoxy)-2-methylpyrimidin-5-yl)benzamide], the Ki was found to be 1.06 nM.
As for `COc1ccc([C@H]2C[C@@H]2COc2nc(C)ncc2-c2ccnc(N)c2C#N)nc1` [Example 108, 2-amino-4-(4-(((1S,2S)-2 (5-methoxypyridin-2-yl)cyclopropyl)methoxy)-2-methylpyrimidin-5-yl)nicotinonitrile], the Ki stood at 3.75 nM.
In the case of `COc1ccc([C@H]2C[C@@H]2COc2nc(C)ncc2-c2ccc(C#N)n2C)nc1` [Example 109, 5-(4-(((1S,2S)-2-(5-methoxypyridin-2-yl)cyclopropyl)methoxy)-2-methylpyrimidin-5-yl)-1-methyl-1H-pyrrole-2-carbonitrile] it was 0.94 nM.
In the case of `CCOC(=O)c1cnc(O)cc1-c1cnc(C)nc1OC[C@H]1C[C@@H]1c1ccc(OC)cn1` [Example 110, ethyl 6-hydroxy-4-(4-(((1S,2S)-2-(5-methoxypyridin-2-yl)cyclopropyl)methoxy)-2-methylpyrimidin-5-yl)nicotinate] it was 41.6 nM.
For `COc1ccc([C@H]2C[C@@H]2COc2nc(C)ncc2-c2cc(Cl)ncc2OC)nc1` [Example 111, 5-(2-chloro-5-methoxypyridin-4-yl)-4-(((1S,2S)-2-(5-methoxypyridin-2-yl)cyclopropyl)methoxy)-2-methylpyrimidine], the Ki stood at 0.79 nM.
In the case of `COc1ccc([C@H]2C[C@@H]2COc2nc(C)ncc2-c2cc(Cl)ncc2OCOCC[Si](C)(C)C)nc1` [Example 112, 5-(2-chloro-5-((2-(trimethylsilyl)ethoxy)methoxy)pyridin-4-yl)-4-(((1S,2S)-2-(5-methoxypyridin-2-yl)cyclopropyl)methoxy)-2-methylpyrimidine], the Ki stood at 19.2 nM.
As for `COc1ccc([C@H]2C[C@@H]2COc2nc(C)ncc2-c2cc(C#N)n(C)c2)nc1` [Example 113, 4-(4-(((1S,2S)-2-(5-methoxypyridin-2-yl)cyclopropyl)methoxy)-2-methylpyrimidin-5-yl)-1-methyl-1H-pyrrole-2-carbonitrile], the Ki worked out at 0.89 nM.
The value for `COc1ccc([C@H]2C[C@@H]2COc2nc(C)ncc2-c2cn(C)nc2C(O)C(F)(F)F)nc1` (stereo partly drawn) [Example 114, 2,2,2-trifluoro-1-(4-(4-(((1S,2S)-2-(5-methoxypyridin-2-yl)cyclopropyl)methoxy)-2-methylpyrimidin-5-yl)-1-methyl-1H-pyrazol-3-yl)ethanol] was 0.93 nM.
For `COc1ccc([C@H]2C[C@@H]2COc2nc(C)ncc2C2=CCOCC2)nc1` [Example 115, 5-(3,6-dihydro-2H-pyran-4-yl)-4-(((1S,2S)-2-(5-methoxypyridin-2-yl)cyclopropyl)methoxy)-2-methylpyrimidine], the Ki is 0.76 nM.
The value for `Cc1ncc(-c2cn(C)nc2CO)c(OC[C@H]2C[C@@H]2c2ccccn2)n1` [Example 116, (1-methyl-4-(2-methyl-4-(((1S,2S)-2-(pyridin-2-yl)cyclopropyl)methoxy)pyrimidin-5-yl)-1H-pyrazol-3-yl)methanol] was 9.01 nM.
In the case of `Cc1ncc(-c2ccc(C(F)(F)F)nc2)c(OC[C@H]2C[C@@H]2c2ccccn2)n1` [Example 117, 2-methyl-4-(((1S,2S)-2-(pyridin-2-yl)cyclopropyl)methoxy)-5-(6-(trifluoromethyl)pyridin-3-yl)pyrimidine] it was 23.5 nM; in that of `Cc1ncc(-c2cnc(C(C)(C)O)cc2C)c(OC[C@H]2C[C@@H]2c2ccccn2)n1` [Example 118, 2-(4-methyl-5-(2-methyl-4-(((1S,2S)-2-(pyridin-2-yl)cyclopropyl)methoxy)pyrimidin-5-yl)pyridin-2-yl)propan-2-ol], 0.1 nM.
In the case of `Cc1ncc(-c2ccc(C(C)(C)O)nc2C)c(OC[C@H]2C[C@@H]2c2ccccn2)n1` [Example 119, 2-(6-methyl-5-(2-methyl-4-(((1S,2S)-2-(pyridin-2-yl)cyclopropyl)methoxy)pyrimidin-5-yl)pyridin-2-yl)propan-2-ol], the Ki turned out to be 2.15 nM.
Take `Cc1ncc(-c2ccc(C3(O)CCCC3)nc2)c(OC[C@H]2C[C@@H]2c2ccccn2)n1` [Example 120, 1-(5-(2-methyl-4-(((1S,2S)-2-(pyridin-2-yl)cyclopropyl)methoxy)pyrimidin-5-yl)pyridin-2-yl)cyclopentanol]: the Ki was 1.04 nM.
As to `Cc1ncc(-c2ccc(C(C)O)cc2)c(OC[C@H]2C[C@@H]2c2ccccn2)n1` (stereo partly drawn) [Example 121, 1-(4-(2-methyl-4-(((1S,2S)-2-(pyridin-2-yl)cyclopropyl)methoxy)pyrimidin-5-yl)phenyl)ethanol], the Ki was found to be 5.05 nM.
`Cc1ncc(-c2ccc(C(C)O)cc2)c(OC[C@H]2C[C@@H]2c2ccccn2)n1` (stereo partly drawn) [Example 122, 1-(4-(2-methyl-4-(((1S,2S)-2-(pyridin-2-yl)cyclopropyl)methoxy)pyrimidin-5-yl)phenyl)ethanol]: the Ki is 2.85 nM.
On to `Cc1ncc(-c2ccc(C(C)(C)O)nc2)c(OC[C@H]2C[C@@H]2c2ccccn2)n1` [Example 123, 2-(5-(2-methyl-4-(((1S,2S)-2-(pyridin-2-yl)cyclopropyl)methoxy)pyrimidin-5-yl)pyridin-2-yl)propan-2-ol], for which the Ki came out at 1.09 nM.
For `Cc1ncc(-c2ccc(C(C)(C)O)nc2)c(OC[C@@H]2C[C@H]2c2ccc(Br)cn2)n1` [Example 124, 2-(5-(4-(((1R,2R)-2-(5-bromopyridin-2-yl)cyclopropyl)methoxy)-2-methylpyrimidin-5-yl)pyridin-2-yl)propan-2-ol], the Ki turned out to be 8.57 nM.
In the case of `Cc1ccc([C@H]2C[C@@H]2COc2nc(C)ncc2-c2cn(C)nc2C(F)F)nc1` [Example 125, 5-(3-(difluoromethyl)-1-methyl-1H-pyrazol-4-yl)-2-methyl-4-(((1S,2S)-2-(5-methylpyridin-2-yl)cyclopropyl)methoxy)pyrimidine] it was 0.4 nM.
As for `Cc1ncc(-c2ncccc2F)c(OC[C@H]2C[C@@H]2c2ccc3ccccc3n2)n1` [Example 127, 2-((1S,2S)-2-((5-(3-fluoropyridin-2-yl)-2-methylpyrimidin-4-yloxy)methyl)cyclopropyl)quinoline], the Ki worked out at 0.51 nM.
